Experimental data as given in patent US12459951B2, “Compounds that interact with RAS superfamily proteins for treatment of cancers, inflammatory diseases, rasopathies, and fibrotic disease” (SHY Therapeutics, LLC, priority 2022, dated 2025).

Assays:
[1] = test system: MiaPaca-2 (expressing KRAS G12C mutant); assay: Proliferation Assay (Cell Viability Assay); type: cell-based; conditions: Homo sapiens, MIA PaCa-2; read-out: Proliferation in MiaPaca-2: IC50
Method in brief: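 After 2–4 days' exposure at 37 °C, 5% CO2 to a single 10 μM final concentration or a dilution series (IC50), percent proliferation inhibition was derived from CellTiter 96 Aqueous One viability readings. The medium contained 0.3% DMSO and 10% FBS. KRAS G12C MiaPaca-2 cells were plated at 2000–5000/well the day before.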

KRas G12C mutant = assay: Ras GTP Binding Domain Inhibition Assay (Ras Superfamily Assay); conditions: 20 μM compound; for KRas G12C mutant + SOS: % inh.: with SOS; for KRas G12C mutant: % inh.: without SOS
Method in brief: (§1)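 His-tagged GTPases immobilised on nickel-coated plates, pre-incubated with compound (20 μM single point, or serial dilution for IC50) 3 h at room temperature, with or without 10-30 μg/mL Sos (residues 556-1049) in the final hour. Bound Cy3- or Cy5-GTP (100 nM, 45 min) measured by fluorescence after washing.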

KRas G12D mutant = assay: as above; conditions: 20 μM compound; for KRas G12D mutant + SOS: % inh.: with SOS; for KRas G12D mutant: % inh.: without SOS
Method in brief: as §1

KRas wild type = assay: as above; conditions: 20 μM compound; for KRas wild type + SOS: % inh.: with SOS; for KRas wild type: % inh.: without SOS
Method in brief: as §1

SMILES	IC50 [1] [nM]	KRas G12C mutant + SOS: % inh. (KRas G12C mutant)	KRas G12C mutant: % inh. (KRas G12C mutant)	KRas G12D mutant + SOS: % inh. (KRas G12D mutant)	KRas G12D mutant: % inh. (KRas G12D mutant)	KRas wild type + SOS: % inh. (KRas wild type)	KRas wild type: % inh. (KRas wild type)
COc1cccc(-c2cn3nc(-c4nccn4C)nc(N[C@@H]4CC[C@@H](OC)C4)c3c2-c2ccccc2)c1F (racemic) [Compound 43, rac 6-(2-Fluoro-3-methoxyphenyl)-N-((1R,3R)-3-methoxycyclopentyl)-2-(1-methyl-1H-imidazol-2-yl)-5-phenylpyrrolo[2,1-f][1,2,4]triazin-4-amine]	> 1000	0 (0 = 0% inhibition)	0 (0 = 0% inhibition)	0 (0 = 0% inhibition)	A (A = 1-25% inhibition)	0 (0 = 0% inhibition)	0 (0 = 0% inhibition)
COc1cccc(-c2cn3nc(-c4nccn4C)nc(N[C@@H]4CC[C@@H](OC)C4)c3c2-c2ccccn2)c1F (racemic) [Compound 46, rac 6-(2-Fluoro-3-methoxyphenyl)-N-((1R,3R)-3-methoxycyclopentyl)-2-(1-methyl-1H-imidazol-2-yl)-5-(pyridin-2-yl)pyrrolo[2,1-f][1,2,4]triazin-4-amine]	> 1000	A (A = 1-25% inhibition)	B (B = 26-49% inhibition)	A (A = 1-25% inhibition)	B (B = 26-49% inhibition)	A (A = 1-25% inhibition)	A (A = 1-25% inhibition)
COc1cccc(Nc2nc(-c3nccn3C)nn3cc(-c4ccn(C(C)C)n4)c(-c4ccccc4)c23)n1 [Compound 23, 6-(1-Isopropyl-1H-pyrazol-3-yl)-N-(6-methoxypyridin-2-yl)-2-(1-methyl-1H-imidazol-2-yl)-5-phenylpyrrolo[2,1-f][1,2,4]triazin-4-amine]	> 1000	0 (0 = 0% inhibition)	A (A = 1-25% inhibition)	0 (0 = 0% inhibition)	A (A = 1-25% inhibition)	A (A = 1-25% inhibition)	0 (0 = 0% inhibition)
COc1cccc(-c2cn3nc(-c4nccn4C)nc(O)c3c2-c2ccccc2)c1Cl [Compound 28, 6-(2-Chloro-3-methoxyphenyl)-2-(1-methyl-1H-imidazol-2-yl)-5-phenylpyrrolo[2,1-f][1,2,4]triazin-4-ol]	> 1000	A (A = 1-25% inhibition)	A (A = 1-25% inhibition)	A (A = 1-25% inhibition)	A (A = 1-25% inhibition)	A (A = 1-25% inhibition)	A (A = 1-25% inhibition)
COc1cccc(-c2cn3nc(-c4nccn4C)nc(N[C@H]4C[C@@H](OC)C4)c3c2-c2ccccc2)c1Cl [Compound 31, 6-(2-Chloro-3-methoxyphenyl)-N-((1s,3s)-3-methoxycyclobutyl)-2-(1-methyl-1H-imidazol-2-yl)-5-phenylpyrrolo[2,1-f][1,2,4]triazin-4-amine]	> 1000	0 (0 = 0% inhibition)	A (A = 1-25% inhibition)	B (B = 26-49% inhibition)	A (A = 1-25% inhibition)	0 (0 = 0% inhibition)	A (A = 1-25% inhibition)
COCCNc1nc(-c2nccn2C)nn2cc(-c3ccn(C(C)C)n3)c(C(C)C)c12 [Compound 35, 5-Isopropyl-6-(1-isopropyl-1H-pyrazol-3-yl)-N-(2-methoxyethyl)-2-(1-methyl-1H-imidazol-2-yl)pyrrolo[2,1-f][1,2,4]triazin-4-amine]	> 1000	0 (0 = 0% inhibition)	A (A = 1-25% inhibition)	0 (0 = 0% inhibition)	0 (0 = 0% inhibition)	A (A = 1-25% inhibition)	A (A = 1-25% inhibition)

Second part, the molecule after the results:

IC50 [1] [nM]	KRas G12C mutant + SOS: % inh. (KRas G12C mutant)	KRas G12C mutant: % inh. (KRas G12C mutant)	KRas G12D mutant + SOS: % inh. (KRas G12D mutant)	KRas G12D mutant: % inh. (KRas G12D mutant)	KRas wild type + SOS: % inh. (KRas wild type)	KRas wild type: % inh. (KRas wild type)	SMILES
> 1000	A (A = 1-25% inhibition)	A (A = 1-25% inhibition)	A (A = 1-25% inhibition)	A (A = 1-25% inhibition)	A (A = 1-25% inhibition)	A (A = 1-25% inhibition)	COCC1CCN(c2nc(-c3ccccn3)nn3cc(-c4ccn(C(C)C)n4)c(-c4ccccc4)c23)C1 (racemic) [Compound 25, rac 6-(1-Isopropyl-1H-pyrazol-3-yl)-4-(3-(methoxymethyl)pyrrolidin-1-yl)-5-phenyl-2-(pyridin-2-yl)pyrrolo[2,1-f][1,2,4]triazine]
510 to 1000	A (A = 1-25% inhibition)	0 (0 = 0% inhibition)	A (A = 1-25% inhibition)	0 (0 = 0% inhibition)	0 (0 = 0% inhibition)	A (A = 1-25% inhibition)	COC[C@@H]1CC[C@@H]1CNc1nc(-c2ccccn2)nn2cc(-c3ccn(C(C)C)n3)c(-c3ccccc3)c12 (racemic) [Compound 26, rac 6-(1-Isopropyl-1H-pyrazol-3-yl)-N-(((1S,2R)-2-(methoxymethyl)cyclobutyl)methyl)-5-phenyl-2-(pyridin-2-yl)pyrrolo[2,1-f][1,2,4]triazin-4-amine]
> 1000	0 (0 = 0% inhibition)	0 (0 = 0% inhibition)	0 (0 = 0% inhibition)	0 (0 = 0% inhibition)	A (A = 1-25% inhibition)	A (A = 1-25% inhibition)	COC1CCCN(c2nc(-c3ccccn3)nn3cc(-c4ccn(C(C)C)n4)c(-c4ccccc4)c23)C1 (racemic) [Compound 27, rac 6-(1-Isopropyl-1H-pyrazol-3-yl)-4-(3-methoxypiperidin-1-yl)-5-phenyl-2-(pyridin-2-yl)pyrrolo[2,1-f][1,2,4]triazine]
510 to 1000	0 (0 = 0% inhibition)	A (A = 1-25% inhibition)	0 (0 = 0% inhibition)	A (A = 1-25% inhibition)	0 (0 = 0% inhibition)	A (A = 1-25% inhibition)	COc1cccc(-c2cn3nc(-c4nccn4C)nc(N[C@@H]4CC[C@H](OC)C4)c3c2-c2ccccc2)c1Cl (racemic) [Compound 33, rac 6-(2-Chloro-3-methoxyphenyl)-N-((1R,3S)-3-methoxycyclopentyl)-2-(1-methyl-1H-imidazol-2-yl)-5-phenylpyrrolo[2,1-f][1,2,4]triazin-4-amine]
> 1000	0 (0 = 0% inhibition)	A (A = 1-25% inhibition)	A (A = 1-25% inhibition)	A (A = 1-25% inhibition)	A (A = 1-25% inhibition)	0 (0 = 0% inhibition)	CO[C@H]1CC[C@@H](Nc2nc(-c3nccn3C)nn3cc(-c4ccn(C(C)C)n4)c(C(C)C)c23)C1 (racemic) [Compound 36, rac 5-Isopropyl-6-(1-isopropyl-1H-pyrazol-3-yl)-N-((1R,3S)-3-methoxycyclopentyl)-2-(1-methyl-1H-imidazol-2-yl)pyrrolo[2,1-f][1,2,4]triazin-4-amine]
510 to 1000	A (A = 1-25% inhibition)	0 (0 = 0% inhibition)	A (A = 1-25% inhibition)	0 (0 = 0% inhibition)	0 (0 = 0% inhibition)	A (A = 1-25% inhibition)	COCCNc1nc(-c2nccn2C)nn2cc(-c3cccc(OC)c3Cl)c(-c3ccccc3)c12 [Compound 29, 6-(2-Chloro-3-methoxyphenyl)-N-(2-methoxyethyl)-2-(1-methyl-1H-imidazol-2-yl)-5-phenylpyrrolo[2,1-f][1,2,4]triazin-4-amine]
510 to 1000	0 (0 = 0% inhibition)	A (A = 1-25% inhibition)	A (A = 1-25% inhibition)	0 (0 = 0% inhibition)	0 (0 = 0% inhibition)	A (A = 1-25% inhibition)	COCCCNc1nc(-c2nccn2C)nn2cc(-c3cccc(OC)c3Cl)c(-c3ccccc3)c12 [Compound 30, 6-(2-Chloro-3-methoxyphenyl)-N-(3-methoxypropyl)-2-(1-methyl-1H-imidazol-2-yl)-5-phenylpyrrolo[2,1-f][1,2,4]triazin-4-amine]
150 to 500	0 (0 = 0% inhibition)	0 (0 = 0% inhibition)	0 (0 = 0% inhibition)	0 (0 = 0% inhibition)	0 (0 = 0% inhibition)	A (A = 1-25% inhibition)	COc1cccc(-c2cn3nc(-c4nccn4C)nc(N[C@H]4C[C@H](OC)C4)c3c2-c2ccccc2)c1Cl [Compound 32, 6-(2-Chloro-3-methoxyphenyl)-N-((1r,3r)-3-methoxycyclobutyl)-2-(1-methyl-1H-imidazol-2-yl)-5-phenylpyrrolo[2,1-f][1,2,4]triazin-4-amine]
